In data set [1] the target is T1, recombinant rat protein tyrosine phosphatase, PTP1B (rPTP1B) (Rattus norvegicus, UniProt P20417).
T1 sequence (P20417 1-432): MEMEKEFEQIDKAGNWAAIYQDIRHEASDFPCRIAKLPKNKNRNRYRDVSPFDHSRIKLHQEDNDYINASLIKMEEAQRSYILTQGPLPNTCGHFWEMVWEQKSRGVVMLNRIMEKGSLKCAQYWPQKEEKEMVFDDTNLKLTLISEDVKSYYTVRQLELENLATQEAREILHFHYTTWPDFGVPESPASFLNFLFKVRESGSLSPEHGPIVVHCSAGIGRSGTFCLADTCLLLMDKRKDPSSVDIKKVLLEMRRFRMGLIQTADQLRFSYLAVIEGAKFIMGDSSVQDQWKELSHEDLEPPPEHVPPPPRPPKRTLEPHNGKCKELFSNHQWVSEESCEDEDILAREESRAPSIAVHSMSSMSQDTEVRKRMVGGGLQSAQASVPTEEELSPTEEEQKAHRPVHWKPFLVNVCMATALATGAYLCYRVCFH
The data set is classed as biochemical. The note with it: rPTP1B; for % change from control at 10 μM: 10 μM compound; for IC50: read-out: IC50.

Another data set concerns diabetic (ob/ob) mice. As to the kind of experiment: Blood glucose lowering activity in diabetic (ob/ob) mice. The class given is in vivo. The note with it: Mus musculus, po. The protocol: The procedures used and results obtained are briefly described below. […]
In each test procedure, mice [Male or female ob/ob (C57 B1/6J) and their lean litermates (ob/+ or +/+, Jackson Laboratories) ages 2 to 5 months (10 to 65 g)] of a similar age were randomized according to body weight into 4 groups of 10 mice. The mice were housed 5 per cage and are maintained on normal rodent chow with water ad libitum. Mice received test compound daily by gavage (suspended in 0.5 ml of 0.5% methyl cellulose); dissolved in the drinking water; or admixed in the diet. The dose of compounds given ranges from 2.5 to 200 mg/kg body weight/day. The dose is calculated based on the fed weekly body weight and is expressed as active moiety. […] Control mice received vehicle only.
On the morning of Day 4, 7 or 14 two drops of blood (approximetly 50 ul) were collected into sodium fluoride containing tubes either from the tail vein or after decapitation. For those studies in which the compound was administered daily by gavage the blood samples were collected two hours after compound administration. […]
Analysis of variance followed by Dunett's Comparison Test (one-tailed) are used to estimate the significant difference between the plasma glucose values from the control group and the individual compound treated groups (CMS SAS Release 5.18).

Data set [2] concerns the target T2, Human recombinant PTP1B (hPTP1B) (Homo sapiens, UniProt P18031).
T2 construct: made in house
T2 sequence (P18031 1-435): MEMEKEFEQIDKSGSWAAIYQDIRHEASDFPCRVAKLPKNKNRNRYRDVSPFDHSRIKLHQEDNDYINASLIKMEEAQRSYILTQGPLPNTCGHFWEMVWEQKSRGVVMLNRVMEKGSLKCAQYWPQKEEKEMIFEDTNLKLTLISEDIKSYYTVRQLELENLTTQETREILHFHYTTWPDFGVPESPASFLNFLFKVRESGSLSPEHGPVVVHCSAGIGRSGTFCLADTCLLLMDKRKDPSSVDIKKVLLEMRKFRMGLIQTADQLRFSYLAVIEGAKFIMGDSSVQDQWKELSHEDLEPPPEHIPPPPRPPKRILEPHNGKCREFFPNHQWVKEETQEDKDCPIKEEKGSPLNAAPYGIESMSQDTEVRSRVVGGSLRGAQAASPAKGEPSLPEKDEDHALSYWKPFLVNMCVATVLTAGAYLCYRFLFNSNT
The data set is classed as biochemical. To be noted: hPTP1B.

The target of data set [3] is rat hepatic microsomal PTPases. To be noted: rat hepatic microsomal PTPase; for IC50: dodecaphosphopeptide substrate 50 uM; for % Change from Control at 50 μM: 50 μM compound.
For data set [4], the system named is Human recombinant PTP1B (hPTP1B). The data set is classed as biochemical.
The mark [5] stands for this setting: 96 h, plasma glucose on Day 4, 7 or 14, suffix a = no significant activity at this dose, read-out: % Change Glucose from Vehicle.
The mark [6] stands for this setting: suffix a = no significant activity at this dose, read-out: % Change Insulin from Vehicle.

Read-outs that look alike come from different tables or passages of the source.

As for `CCCCc1oc2ccccc2c1Cc1cc(Br)c(OCC(=O)O)c(Br)c1` [Example 7], the melting point is 118 to 119 °C. For the same compound, the “% change from control at 10 μM” value in data set [1] is reported as −99 (rPTP1B) %. Besides, in the data set with diabetic (ob/ob) mice (setting [5]), the change in vivo at 100 mg/kg was -29.4%. Moreover, the change in vivo at 100 mg/kg in the data set with diabetic (ob/ob) mice (setting [6]) was -13.1%. Moreover, the IC50 in data set [2] is 1400 nM. Further, in data set [3], half-maximal inhibition (IC50) required 22700 nM.
Regarding `[Na+].[Na+].[Na+].[O]=[V]([O-])([O-])[O-]` [Sodium orthovanadate, reference compound], the “% change from control at 10 μM” value in data set [4] is 244.8%.
Compound `CCCCc1oc2ccccc2c1C(=O)c1cc(Br)c(O[C@H](Cc2ccccc2)C(=O)O)c(Br)c1` [Example 22, (R)-2-[2,6-dibromo-4-(2-butyl-benzofuran-3-carbonyl)-phenoxy]-3-phenyl-propionic acid] gave a melting point of 56 to 58 °C. The IC50 in data set [2] is 1150 nM. Besides, in data set [3], the “% Change from Control at 50 μM” value is −77%.
In turn, `CCCCc1oc2ccccc2c1Cc1cc(Br)c(O[C@H](Cc2ccccc2)C(=O)O)c(Br)c1` [Example 23, (R)-2-[2,6-dibromo-4-(2-butyl-benzofuran-3-ylmethyl)-phenoxy]-3-phenyl-propionic acid] returned a melting point of 225 to 226 °C. Moreover, the IC50 in data set [2] was 870 nM. For the same compound, the “% Change from Control at 50 μM” value in data set [3] is given as −85%.
As to `O=C(c1cc(Br)c(O)c(Br)c1)c1c(Cc2ccccc2)sc2ccccc12` [Example 11, (2-Benzyl-benzo[b]thiophen-3-yl)-(3,5-dibromo-4-hydroxy-phenyl)-methanone], the melting point fell in the range of 155.5 to 156.5 °C. In addition, the IC50 in data set [1] was found to be 3970 nM. In addition, the change in vivo at 100 mg/kg in the data set with diabetic (ob/ob) mice (setting [5]) is -30.3%. Besides, the change in vivo at 100 mg/kg in the data set on diabetic (ob/ob) mice (setting [6]) was -53.2%. The IC50 in data set [2] was 1940 nM. Half-maximal inhibition in data set [3] (IC50) required 33900 nM.
`CCCCc1oc2ccccc2c1C(=O)c1cc(I)c(O)c(I)c1` [Example 16, (2-Butyl-benzofuran-3-yl)-(4-hydroxy-3,5-diiodo-phenyl)-methanone]: the IC50 was determined as 190 nM in data set [1], 2600 nM in data set [2] and 15300 nM in data set [3]. Moreover, the change in vivo at 100 mg/kg with diabetic (ob/ob) mice (setting [5]) was -51.8%; in the data set on diabetic (ob/ob) mice (setting [6]) it was -73.7%.
As to `CCc1oc2ccccc2c1C(=O)c1c(Br)cc(Br)c(O)c1Br` [Example 8, (2-Ethyl-benzofuran-3-yl)-(2,4,6-tribromo-3-hydroxy-phenyl)-methanone], the melting point fell in the range of 153 to 154 °C. For the same compound, the “% change from control at 10 μM” value in data set [1] is listed as −61 (rPTP1B) %. In addition, the change in vivo at 100 mg/kg in the data set on diabetic (ob/ob) mice (setting [5]) is -3.3%. For the same compound, in the data set on diabetic (ob/ob) mice (setting [6]), the change in vivo at 100 mg/kg is -31.2%. The compound further returned an IC50 in data set [3] of 17500 nM.
On to “Ammonium molybdate tetrahydrate [reference compound]”, for which the “% change from control at 10 μM” value in data set [4] (reference standards, enzyme form (rPTP1B/hPTP1B) not given) is 8.7%.

(Values after patent US6844358B2, “Phenyl oxo-acetic acids useful in the treatment of insulin resistance and hyperglycemia” (Wyeth, priority 1998, dated 2005).)
